Earlier results as cited in patent US20220296560A1, “PHARMACEUTICAL COMPOSITION FOR ORAL ADMINISTRATION IN POWDER FORMULATION CONTAINING ANTIVIRAL AGENT” (DAE HWA PHARMA. CO., LTD., priority 2019, published 2022).
Read-outs that look alike come from different tables or passages of the source.

Settings: in vivo

- bioavailability (inhaled or intranasal): 4-17%
- bioavailability (po): about 2%
SMILES: CC(=O)N[C@H]1[C@H]([C@H](O)[C@H](O)CO)OC(C(=O)O)=C[C@@H]1N=C(N)N [zanamivir, 5-(acetylamino)-4-{[amino(imino)methyl]amino}-2,6-anhydro-3,4,5-trideoxy-D-glycero-D-galacto-non-2-enonic acid]
